These results are taken from patent US20170002373A1, “METHOD OF PRODUCING LEAFY BIOMASS” (Imperial Innovations Limited, priority 2009, published 2017).

In experiment [1] the test system is transplastomic cell suspensions from the tobacco GFP-6 line. Nature of the experiment: Shoot/leafy biomass production from cell suspensions in temporary immersion bioreactor. It is filed as cell-based, Nicotiana tabacum Petit Havana. The settings on record: 2-L temporary immersion bioreactor, MS media supplemented with 0.1 μM TDZ, after about six weeks. As to the method:
Given that transplastomic gene expression seemed to be highest in leaf tissue we sought to develop a method for the rapid production of leaf tissue from callus/cell suspensions. […] In order to scale up the production capacity, transplastomic cell suspensions from the tobacco GFP-6 line were loaded into a 2-L bioreactor and temporally submerged in MS media supplemented with 0.1 μM TDZ. […] During the first 14 days, no growth could be detected and shoots only started to grow after this period. Possibly this lag period is related to the time needed for cells to redifferentiate from callus tissue to leafy tissue in tobacco in a similar manner to the observed switch between calli and meristematic tissues in Arabidopsis thaliana (Gordon et al, 2007).
Tobacco biomass was generated by placing about 7 grams of Nicotiana tabacum Petit Havana cell suspensions in a 2-L temporary immersion bioreactor (Ducos et al, 2007). Immersions were performed over a 40-day period with 1-L MS media supplemented with 0.1 μM Thidiazuron (TDZ, Sigma, UK) every three hours for 5 min. Additionally, the media contained 100 mg/L of spectinomycin to prevent contamination and to select for transplastomic cells. The TDZ (Thidiazuron) concentration in MS media was estimated to be optimal at 0.1 μM by researchers in Nestle, based on calli solid induction in Petri dishes (data not shown). […]

Experiment [2] relates to GFP-6 calli. Nature of the experiment: Shoot induction from transplastomic calli on solid MS medium. Format: cell-based, Nicotiana tabacum Petit Havana. Particulars: data not shown; for shoot formation from calli: GFP-6 calli grown on solid MS medium with TDZ, shoots after 6 weeks.

Regarding `O=C(Nc1ccccc1)Nc1cnns1` [Thidiazuron], in experiment [1], the “shoot formation from cell suspensions” value is listed as “a large number of shoots were produced”. In addition, the “shoot formation from calli” value was “able to induce shoot formation” in experiment [2] and “induced the formation of shoots from calli” in experiment [2] (listed as thidiazuron). The “optimal TDZ concentration in MS media” value in experiment [2] (based on calli solid induction in Petri dishes, estimated by researchers in Nestle) was 0.1 µM.
